The values that follow come from patent publication US7358237B2, “Inducible nitric oxide synthase binds, S-nitrosylates, and activates cyclooxygenase-2” (The Johns Hopkins University, priority 2005, dated 2008).

For assay [1], the system named is RAW264.7 cells. Nature of the assay: PGE2 formation in RAW264.7 cells in response to LPS/IFNγ (PGE2 ELISA). The class given is cell-based, murine. The conditions noted are these: for PGE2 formation in response to LPS/IFNγ: 1400W various concentrations overnight, L-NAME 500 μM, D-NAME 500 μM. On the procedure: Measurement of PGE2. Cells were washed with worm PBS (×2) and incubated in the phenol free Dulbecco's modified Eagle's medium supplemented with 20 μM arachidonic acid and 3% albumin for 20 min. Media was collected and PGE2 production was measured with a PGE2 ELISA kit from Assay Design (Ann Arbor, Mich.) according to the manufacturer's instructions.

Assay [2] addresses T1, COX2 (Homo sapiens, UniProt P35354).
T1 construct: myc; expressed in transfected cells; host or cells: HEK293T
T1 sequence (P35354 18-604): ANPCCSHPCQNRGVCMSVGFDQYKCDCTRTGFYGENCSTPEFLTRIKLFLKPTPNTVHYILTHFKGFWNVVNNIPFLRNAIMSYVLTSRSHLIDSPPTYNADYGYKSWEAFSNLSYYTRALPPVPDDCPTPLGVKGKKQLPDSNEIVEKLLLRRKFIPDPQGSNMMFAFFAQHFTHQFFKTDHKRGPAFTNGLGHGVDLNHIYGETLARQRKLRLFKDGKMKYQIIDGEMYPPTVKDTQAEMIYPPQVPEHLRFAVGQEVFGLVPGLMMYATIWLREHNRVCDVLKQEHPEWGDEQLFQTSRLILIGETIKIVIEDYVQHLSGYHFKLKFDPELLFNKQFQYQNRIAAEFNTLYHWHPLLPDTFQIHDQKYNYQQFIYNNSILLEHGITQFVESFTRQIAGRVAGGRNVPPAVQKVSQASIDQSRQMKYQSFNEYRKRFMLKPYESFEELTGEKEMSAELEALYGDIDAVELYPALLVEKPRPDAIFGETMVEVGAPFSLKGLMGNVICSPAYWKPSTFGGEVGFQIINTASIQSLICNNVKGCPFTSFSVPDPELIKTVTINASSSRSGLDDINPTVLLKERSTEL
In words: S-nitrosylation of COX2 (biotin switch assay) in HEK293T cells transfected with COX2-myc. The class given is cell-based. The conditions noted are these: for S-nitrosylation of COX2 by NO donors and H2O2: HEK293T cells transfected with COX2-myc, biotin switch, GSNO 100 μM, SNP 100 μM, Spermine-NO 100 μM, DETA-NO 500 μM. An excerpt: Plasmid Constructions. Full length human cyclooxygenase2-encoding gene (gene bank sequence NM_000963) was purchased from ATCC in pCMV•SPORT6 vector. The sequence was amplified by PCR using primers harboring Sal1/Not1 restriction sites and cloned into the pCMV-Myc vector (Clontech, Palo Alto, Calif.). The murine inducible nitric oxide synthase (accession number NM_010927) cloned into the pcDNA3.1+vector (Invitrogen, Carlsbad, Calif.).
(§1) S-nitrosylation assay. Cells were homogenized by 26G needle in HEN ([…] Hepes-NaOH pH 7.7, 1 mM EDTA, 0.1 mM Neocuproine) buffer and then centrifuged at 1000 g for 10 min at 4° C. Cells lysates (240 μg) was added 4 vol of blocking buffer (9 vol of HEN buffer plus 1 vol 25% SDS, adjusted to 20 mM MMTS with a 2 M stock prepared in dimethylformamide (DMF)) at 50° C. for 20 min with frequent vortexing. The MMTS was then removed by desalting three times with the MicroBioSpin6 column (Bio-Rad, Hercules, Calif.) pre-equilibrated in HEN buffer. To the eluate was added biotin-HPDP prepared fresh as a 4 mM stock in DMSO from a 50 mM stock suspension in DMF. Sodium ascorbate was added to a final concentration of 1 mM. After incubation for 1 h at 25° C., biotinylated proteins were precipitated by streptavidin-agarose beads. The streptavidin-agarose was then pelleted and washed 5 times using HENS buffer. The biotinylated proteins were eluted by SDS-PAGE sample buffer and subjected to Western-blot analysis.

In assay [3] the target is T1, COX2. Nature of the assay: COX2 enzyme activity in cell lysate of COX2-myc transfected HEK293T cells. The class given is biochemical. On the procedure: COX2 enzymatic assay. […] COX2 enzymatic activity was measured with a COX assay kit (Cayman Biochemical Inc, Ann Arbor, Mich.) according to the manufacturer's instructions.
To determine whether S-nitrosylation of COX2 alters enzyme activity, we examined COX2 enzyme activity in HEK293T cells transfected with COX2-myc.

In assay [4] the test system is COX2. Nature of the assay: S-nitrosylation of COX2 in RAW264.7 cells treated with LPS/IFNγ (biotin switch and fluorometric detection). The settings on record: 1400W 100 μM, fragment transfected. The class given is cell-based, murine. The method, then:
as §1
Fluorometric detection of S-nitrosothiols. The methods were modified according to Cook et al.(2) RAW264.7 cells were treated with LPS/IFNγ for overnight and COX2 was immunoprecipitated by donkey anti-rat COX2 antibodies. After that the samples were reacted with 100 μM 2,3-diaminonaphthalene (DAN) in the presence of 100 μM of HgCl2 and incubated in darkness for 30 min at room temperature. The generated fluorescent compound 2,3-napththyltrazole (NAT) was then measured at an excitation wavelength of 375 nm and an emission wavelength of 450 nm.

Assay [5] addresses T2, iNOS and COX2 binding (Mus musculus, UniProt P29477+Q05769).
T2 construct: endogenous in cells; host or cells: RAW264.7 murine macrophages induced with LPS/IFNγ
Nature of the assay: Co-immunoprecipitation of iNOS and COX2 in LPS/IFNγ-induced RAW264.7 cells. The class given is cell-based, murine.

Assay [6] concerns RAW264.7 cells. In words: Confocal immunofluorescence of endogenous PGE2 in RAW264.7 cells transfected with COX2-myc fragments. Format: cell-based, murine. The settings on record: RAW264.7 cells activated by LPS/IFNγ. On the procedure:
Immunohistochemistry. RAW264.7 cells were transfected with deletion constructs of COX2. Cells were fixed in 4% paraformaldehyde in PBS for 5 min, permeablized in 0.1% Triton X-100 for 10 s, and then rinsed twice in PBS. Coverslips were then blocked in 10% goat serum at room temperature for 1 h and incubated with PGE2 (Cayman Biochemical Inc, Ann Arbor, Mich.) and myc antibodies for 24 hr at 4° C. Rhodamine or fluorescein-conjugated secondary antibodies (Jackson Immunochemicals, West Grove, Pa.) were then added at 10 μg/ml for 1 hr at room temperature as indicated. Coverslips were mounted in ProLong (Molecular Probes, Eugene, Oreg.). Confocal microscopy, in which the immunofluorescent staining is superimposed on phase contrast images, employed a Noran OZ (Noran Instruments, Middleton, Wis.) confocal laser-scanning system, fitted to an Olympus IX-50 fluorescence microscope.

For `COC(=O)[C@@H](N)CCCNC(=N)N[N+](=O)[O-]` [L-NAME, nitro-argininemethylester], in assay [1] (RAW264.7 cells), the “PGE2 formation in response to LPS/IFNγ” value is recorded as “inhibition of PGE2 formation”.
For the molecule `O=C1O[C@H]([C@@H](O)CO)C(O)=C1O` [ascorbic acid], the “S-nitrosylation of COX2-myc in the presence of SNP” value in assay [2] (SNP 200 μM, ASC 500 μM) is “reversed”. In addition, the “Increase of COX2 activity by SNP” value in assay [3] (SNP 200 μM plus ascorbate 500 μM) was “prevents the increase”. Besides, the “COX2 activity in preparations not treated by SNP” value in assay [3] (ascorbate 500 μM, no SNP) is on record as “fails to affect”.
Take `OO` [H2O2]: in assay [2], the “S-nitrosylation of COX2 by NO donors and H2O2” value is listed as “does not elicit S-nitrosylation”.
`COC(=O)[C@H](N)CCCN=C(N)N[N+](=O)[O-]` [D-NAME]: the “PGE2 formation in response to LPS/IFNγ” value in assay [1] (RAW264.7 cells) is “not”.
On to `NCCN(CCN)/[N+]([O-])=N/O` [DETA-NONOate], for which the “S-nitrosylation of COX2 by NO donors and H2O2” value in assay [2] is recorded as “elicit S-nitrosylation”.
Still for that read-out and setting: under `N[C@@H](CCC(=O)N[C@@H](CSN=O)C(=O)NCC(=O)O)C(=O)O` [GSNO, nitrosoglutathione] stands “elicit S-nitrosylation”; under `NCCCNCCCCN(CCCN)/[N+]([O-])=N/O` [spermine-NO], “elicit S-nitrosylation”.
As to “hemoglobin: sequesters freely diffusible NO”, the “S-nitrosylation of COX2” value in assay [4] is reported as “fails to alter”.
As to `CC(=N)NCc1cccc(CN)c1` [1400W], the “Co-precipitation of iNOS and COX2” value in assay [5] (RAW264.7 cells induced by LPS/IFNγ, inhibitor 100 μM, immunoprecipitation with anti-iNOS or anti-COX2 antibodies) is on record as “unaffected”. Further, in assay [4], the “S-nitrosylation of COX2” value is listed as “prevented”. Further, in assay [1] (RAW264.7 cells), the “PGE2 formation in response to LPS/IFNγ” value is recorded as “inhibited”.
In the case of `N=C(N)NCCC[C@H](N)C(=O)O` [L-arginine], the “Effects of L-NAME on PGE2 formation” value in assay [1] (RAW264.7 cells, LPS/IFNγ, L-NAME 500 μM + L-Arg 1 mM) is “reversed”.

B1: 484-604: dominant-negative myc-tagged fragment of COX2, amino acids 484-604, which binds iNOS (protein)
chain: IDAVELYPALLVEKPRPDAIFGETMVEVGAPFSLKGLMGNVICSPAYWKPSTFGGEVGFQIINTASIQSLICNNVKGCPFTSFSVPDPELIKTVTINASSSRSGLDDINPTVLLKERSTEL
In the case of B1, in assay [5] (fragment transfected into RAW264.7 cells, LPS/IFNγ, immunoprecipitation with anti-iNOS), the “Co-precipitation of iNOS and COX2” value is “abolishes”. The “S-nitrosylation of COX2” value in assay [4] is recorded as “decreases”. The “Reduction of PGE2 formation” value in assay [1] (dominant-negative fragment transfected into RAW264.7 cells, LPS/IFNγ) is “more than 50%”. Further, in assay [6], the “PGE2 expression level in transfected cell compared to non-transfected cell (immunofluorescent staining)” value was “reduction”.

B2: 1-483: myc-tagged fragment of COX2 comprising amino acids 1-483, which does not bind iNOS (protein)
chain: ANPCCSHPCQNRGVCMSVGFDQYKCDCTRTGFYGENCSTPEFLTRIKLFLKPTPNTVHYILTHFKGFWNVVNNIPFLRNAIMSYVLTSRSHLIDSPPTYNADYGYKSWEAFSNLSYYTRALPPVPDDCPTPLGVKGKKQLPDSNEIVEKLLLRRKFIPDPQGSNMMFAFFAQHFTHQFFKTDHKRGPAFTNGLGHGVDLNHIYGETLARQRKLRLFKDGKMKYQIIDGEMYPPTVKDTQAEMIYPPQVPEHLRFAVGQEVFGLVPGLMMYATIWLREHNRVCDVLKQEHPEWGDEQLFQTSRLILIGETIKIVIEDYVQHLSGYHFKLKFDPELLFNKQFQYQNRIAAEFNTLYHWHPLLPDTFQIHDQKYNYQQFIYNNSILLEHGITQFVESFTRQIAGRVAGGRNVPPAVQKVSQASIDQSRQMKYQSFNEYRKRFMLKPYESFEELTGEKEMSAELEALYGD
B2: the “Influence on PGE2 formation” value in assay [1] (fragment transfected into RAW264.7 cells, LPS/IFNγ) is “fails to influence”. In assay [6], the “PGE2 expression level in transfected cell compared to non-transfected cell (immunofluorescent staining)” value is “does not show a reduction”.
